Data: PMC9601806, “Calcium Binding Mechanism of Soybean Peptide with Histidine Alteration by Molecular Docking Analysis and Spectroscopic Methods” (Foods, 2022)
Residues, ends and D or L forms follow the SMILES beside them.

Tests used:
[1] = Simulated gastrointestinal digestion and Caco-2 absorption, LC-MS/MS identification; format: in vitro ADME; settings: pepsin pH 2, 37 °C, 90 min, then trypsin and bile salts pH 7.5, Caco-2 absorption 0.1 mg/mL, 2 h
Protocol: The simulation of gastrointestinal digestion was carried out following the method described before with some modifications. The gastric set was reproduced by the suspension of porcine pepsin (40 mg) into 1 mL 0.1N HCl. The intestinal stage was stimulated by adding bile salts (40 mg) and trypsin (10 mg) into 5 mL of 0.1 mol/L NaHCO3. Gastric digestion was performed by incubating the CBP–calcium complex or CaCl2 (prepared with equal Ca^2+ concentration, pH = 2) at a pepsin/substrate ratio of 1:100 (w/w) in a water bath shaker (37 °C, 90 min). […], the […] at 1:25 (w/w) of substrates was added, following by adjusting the pH to 7.5. After that, samples were removed after deactivating trypsin by thermal denaturation for 5 min. Then, the obtained samples were lyophilized and stored at −20 °C for the sake of subsequent studies.
The human intestinal Caco-2 cell line has been extensively used as an intestinal barrier model. These cells were cultured in high-glucose Dulbecco’s Eagle’s medium (DMEM), which contained 10% fetal bovine serum (FBS), 100 μg mL^−1 streptomycin, and 100 U mL^−1 penicillin, and were incubated at 37 °C in a humidified 5% CO2 incubator. Transepithelial transport through the Caco-2 single cell layer was performed in accordance with Wang et al.’s method. […]

[2] = cited from earlier work
Protocol: To clarify the calcium-binding capacity of CBP-H, Nanjing Peptide Biotechnology Corporation. Ltd. (Nanjing, China) synthesized the peptide CBP-H using a solid-phase procedure. High performance liquid chromatography (HPLC) analysis was performed to determine the purity (98%) of CBP-H (Figure S1A), and ESI mass spectrometry was used to confirm the peptide structure. […] In addition, the CBP-H–Ca complex was prepared, followed by ICP-AES to detect the calcium-binding capacity. […] Spectroscopic methods were used to analyze the binding mode and binding sites including ITC, UV, FTIR, and XRD. Isothermal titration calorimetry was always used to measure reversible reactions between bio-molecules. This methodology provided the affinity constant, stoichiometry, enthalpy, and entropy of the biomolecular interactions.

Molecule | stability after simulated gastrointestinal digestion [1] | further results
CC[C@H](C)[C@H](NC(=O)[C@H](CCC(N)=O)NC(=O)[C@H](CCC(=O)O)NC(=O)[C@H](CC(=O)O)NC(=O)[C@H](CCC(=O)O)NC(=O)[C@@H](N)CC(=O)O)C(=O)N1CCC[C@H]1C(=O)N[C@@H](CO)C(=O)N[C@@H](Cc1c[nH]cn1)C(=O)N1CCC[C@H]1C(=O)N1CCC[C@H]1C(=O)N[C@@H](CCCNC(=N)N)C(=O)O [CBP, Asp-Glu-Asp-Glu-Gln-IIe-Pro-Ser-His-Pro-Pro-Arg] (H-DEDEQIPSHPPR-OH) | partially stable | 
CC[C@H](C)[C@H](NC(=O)[C@H](CCC(N)=O)NC(=O)[C@H](CCC(=O)O)NC(=O)[C@H](CC(=O)O)NC(=O)[C@H](CCC(=O)O)NC(=O)[C@@H](N)CC(=O)O)C(=O)N1CCC[C@H]1C(=O)N[C@@H](CO)C(=O)N[C@@H](CC(C)C)C(=O)N1CCC[C@H]1C(=O)N1CCC[C@H]1C(=O)N[C@@H](CCCNC(=N)N)C(=O)O [CBP-H, Asp-Glu-Asp-Glu-Gln-IIe-Pro-Ser-Leu-Pro-Pro-Arg] (H-DEDEQIPSLPPR-OH) | partially stable | 
GPAGPHGPVG [tilapia bone collagen peptide, literature comparison] |  | calcium-binding capacity ([2]; tilapia bone collagen peptide): 18.80 ± 0.49 mg/g
Thr-Cys-His |  | calcium binding capacity ([2]; peptide from shrimp protein hydrolysates): 2.7 mmol/g
